{"source": "patent US20230183705A1", "about": "“PRODUCTS FOR SUPPRESSING OR REDUCING THE EXPRESSION OR ACTIVITY OF A SNORNA AND USES THEREOF IN THE TREATMENT OF CANCER” (NINOVAX, priority 2020, published 2023)", "format_in_all_cases": "cell-based, human", "key": {"[1]": {"test_system": "MCF7 cells (breast cancer)", "test": "Cell proliferation (cell counting) after siRNA knock-down of snoRNA-jouvence", "settings": "siRNA 10 nM, three transfections at day 0, 2, 4, cells counted at day 7", "description": "(§1) The siRNA treatment consists of three reverse transfections applied at day 0, day 2, day 4, followed by the determination of the number of cells at day 7 for A-B-C-D. For E, a single treatment has been done at day 0, and the number of cells was counted two days later. siRNA was used at a concentration of 10 nM. Five different human cancer cell lines were used. A) HCT116 cells (colon cancer), B) MCF7 cells (breast cancer), C) U87 cells (glioblastoma), D) A549 cells (lung cancer), and E) K562 cells (leukemia). In siRNA-treated cells, inventors observed a strong reduction of the number of cells, by about 50% or more, except in E in which the reduction was about 10% probably due to the fact that only a single treatment has been performed. […] In si-RNA treated cells, inventors observed a 40% reduction of snoRNA-jouvence expression.\n(§2) All human cancer cell lines were provided from ATCC. HCT116 were cultured in McCoy’s 5A medium (Gibco, Invitrogen, USA), supplemented with 10% Fetal Bovine Serum (FBS) (Biowest, France). MCF7, A549, and K562 cells were cultured in RPMI 1640 + Glutamax medium (Gibco, Invitrogen, USA), supplemented with 10% Fetal Bovine Serum (FBS) (Biowest, France). U87 cells were cultured in Dulbecco’s modified Eagle’s medium (DMEM) (Gibco), supplemented with 10% FBS. Cells were incubated at 37° C. in a humidified atmosphere containing 5% CO2. The medium was changed every two days, and cells were transferred using 0.05% trypsin/EDTA (Gibco Invitrogen).\n(§3) The effect of the knock-down of the snoRNA-jouvence in HCT116 cells was assessed by the transfection of short interfering RNA (siRNA). First, the cells were seeded in 12-well plates (in triplicates), with the following number of cells per well: HCT116 and MCF7: 3.0×10^4, K562: 2.5 x10^4, A549: 2.0x10^4, and U87: 6.0x10^4. […] Cell suspensions were directly transfected with the corresponding siRNA (reverse transfection) at a final concentration of 10 nM per well, using the Lipofectamine RNAiMAX transfection reagent (ThermoFisher Scientific, USA). Forty-eight hours after the first siRNA reverse transfection, a forward transfection was performed on the adherent cells (at the same concentration as the first reverse transfection). Again, forty-eight hours after the siRNA forward transfection, a second forward transfection was performed on the adherent cells (at the same concentration). Then, after 72 h (meaning at J7 from the starting point), the medium was changed and cells were counted and compared to the different controls. For the RNA extraction and RNA-seq analysis performed in HCT116 cells, cell pellets were made under the same conditions (at J7). Experiments were performed in triplicates and the specific knock-down of the snoRNA-jouvence was validated by standard RT-qPCR (TaqMan).\n(§4) Study was performed in five different human cancer cell lines, HCT116 cells (colon cancer), MCF7 cells (breast cancer), U87 cells (glioblastoma), A549 cells (lung cancer), and K562 cells (leukemia). The proliferation rate of siRNA-treated cells (snoRNA jouvence knock-down) compared to non-treated Control cells was analysed by cell counting at J7. Briefly, the supernatant was harvested and cells washed with PBS 1X. Then, cells were trypsinized with 300 µl of 0.05% trypsin/EDTA (Gibco) per well. Trypsine was inactivated with 700 µL of the corresponding medium per well, and then counted with the VicellXR (Cell viability Analyzer, Beckman Coulter)."}, "A549 cells (lung cancer)": {"test_system": "A549 cells (lung cancer)", "test": "Cell proliferation (cell counting) after siRNA knock-down of snoRNA-jouvence", "settings": "siRNA 10 nM, three transfections at day 0, 2, 4, cells counted at day 7", "description": "as §1, §2, §3, §4"}, "[2]": {"test_system": "HCT116 cells (colon cancer)", "test": "Cell proliferation (cell counting) after siRNA knock-down of snoRNA-jouvence", "settings": "siRNA 10 nM, three transfections at day 0, 2, 4, cells counted at day 7", "description": "as §1, §2, §3, §4"}, "U87 cells (glioblastoma)": {"test_system": "U87 cells (glioblastoma)", "test": "Cell proliferation (cell counting) after siRNA knock-down of snoRNA-jouvence", "settings": "siRNA 10 nM, three transfections at day 0, 2, 4, cells counted at day 7", "description": "as §1, §2, §3, §4"}, "K562 cells (leukemia)": {"test_system": "K562 cells (leukemia)", "test": "Cell proliferation (cell counting) after siRNA knock-down of snoRNA-jouvence", "settings": "siRNA 10 nM, single treatment at day 0, cells counted two days later", "description": "as §1, §2, §3, §4"}, "snoRNA-jouvence": {"test_system": "snoRNA-jouvence", "test": "Expression of the snoRNA-jouvence by RT-qPCR (Taqman) in siRNA-treated HCT116 cells", "settings": "siRNA-treated HCT116 cells compared to non-treated control HCT116 cells, siRNA 10 nM", "description": "as §1\nThe effect of the knock-down of the snoRNA-jouvence in HCT116 cells was assessed by the transfection of short interfering RNA (siRNA). First, the cells were seeded in 12-well plates (in triplicates), with the following number of cells per well: HCT116 and MCF7: 3.0×10^4, K562: 2.5 x10^4, A549: 2.0x10^4, and U87: 6.0x10^4. […] Then, after 72 h (meaning at J7 from the starting point), the medium was changed and cells were counted and compared to the different controls. […]"}, "Ribosomes pathways": {"test_system": "Ribosomes pathways", "test": "Transcriptomic analysis (RNA-seq) with KEGG analysis in HCT116 cells", "settings": "HCT116, siRNA treated versus non-treated cells", "description": "Briefly, 99 genes over 138 genes of this pathway are deregulated.\nas §3, with “(TaqMan). […]” for “(TaqMan).”\nIn brief, technically, RNA concentration was measured using Qubit® RNA Assay Kit in Qubit® 2.0 Flurometer (Life Technologies, CA, USA). RNA integrity was assessed using the RNA Nano 6000 Assay Kit of the Bioanalyzer 2100 system (Agilent Technologies, CA, USA). […] At last, PCR products were purified (AMPure XP system) and library quality was assessed on the Agilent Bioanalyzer 2100 system. […] After cluster generation, the library preparations were sequenced on an Illumina Hiseq platform and 125 bp/150 bp paired-end reads were generated. […]"}}}
{"substance": "siRNA: silencer selected siRNA (Lock-Nucleotide-Acid siRNA) comprising SEQ ID NO: 3 as sense and SEQ ID NO: 4 as antisense sequence, against snoRNA-jouvence (sense GGCUAUUGUGGACAGAGGA; antisense UCCUCUGUCCACAAUAGCC; Silencer Select LNA-modified siRNA, pattern not given here)", "values": [{"measurement": "reduction of the number of cells", "setting": "[1]", "value": "≥ 50", "unit": "%"}, {"measurement": "reduction of the number of cells", "setting": "A549 cells (lung cancer)", "value": "≥ 50", "unit": "%"}, {"measurement": "reduction of the number of cells", "setting": "[2]", "value": "≥ 50", "unit": "%"}, {"measurement": "reduction of the number of cells", "setting": "U87 cells (glioblastoma)", "value": "≥ 50", "unit": "%"}, {"measurement": "reduction of the number of cells", "setting": "K562 cells (leukemia)", "value": "about 10%"}, {"measurement": "reduction of snoRNA-jouvence expression", "setting": "snoRNA-jouvence", "value": 40, "unit": "%"}, {"measurement": "deregulated genes of the Ribosomes pathways (over 138 genes)", "setting": "Ribosomes pathways", "value": 99, "unit": "genes"}, {"measurement": "downregulated genes of the Ribosomes pathways", "setting": "Ribosomes pathways", "value": 92, "unit": "genes"}, {"measurement": "upregulated genes of the Ribosomes pathways", "setting": "Ribosomes pathways", "value": 7, "unit": "genes"}]}
